The conditions of series [1]: cited from earlier work.
For a further series, the system named is MCF7X (mammary). Kind of series: Colony-forming assay. It is filed as cell-based, human. The conditions noted are these: for IC50: read-out: IC50 colony formation.
In series [2] the test system is large-cell lung carcinoma xenograft line LXFL 529 L. Briefly: Tumor cell growth inhibition, sulforhodamine B (SRB) assay. To be noted: LXFL529L; three days incubation, serum containing medium. The series is classed as cell-based, human. A general note: The SRB assay estimates cell density from bound dye.
Another series concerns LXFL 529L cells. Kind of series: Cellular uptake into LXFL 529L cells. The conditions noted are these: for distribution cellular organelles / distribution cytosol / amount of substance within the cells: 2 hours incubation. On the procedure:
The compounds of Examples 1, 6 and 8 and Comparative Examples 1 and 2 were investigated with respect to their ability to penetrate LXFL 529L cells having the passage numbers P23 to P39. The amounts of the substances taken up by the cells are given depending on the concentration of the substance within the incubation medium. The time of incubation was 2 hours in all of the experiments. Furthermore, the distribution of the substance which was taken up by the cells in the cytosol and the cellular organelles (particular) was estimated and is given in the intermediate column of Table 2. Tumor cell growth inhibition was determined by the sulfo-rhodamine B assay (SRB assay) according to Skehan et al., J. Natl. Cancer Institute 82, pages 1107-1112 (1990). Incubation was conducted for three days in serum containing medium. Tumor cell lines tested were a large-cell lung carcinoma xenograft line LXFL 529 L and the mammary carcinoma line MCF-7.

Series [3] has as its system LXFL529 (lung large-cell). Kind of series: Colony-forming assay. The series is classed as cell-based, human.
The next series relates to PAXF736 (pancreatic). Briefly: Colony-forming assay. The series is classed as cell-based, human. To be noted: for IC50: read-out: IC50 colony formation.
Series [4] has as its system mammary carcinoma line MCF-7. Briefly: Tumor cell growth inhibition, sulforhodamine B (SRB) assay. The series is classed as cell-based, human. The conditions noted are these: MCF7; three days incubation, serum containing medium.
Another series relates to OVXF1353 (ovarian). Briefly: Colony-forming assay. The series is classed as cell-based, human. On the procedure: (§1) The anti-tumor activity of the compounds was evaluated via a colony-forming-assay as described e.g. by D. P. Berger et al. in Annals of Oncology 1, pages 333-341 (1 990), “The clonongenic assay with human tumor xenografts, evaluation, predictive values and application for drug screening”.
(§2) The experiments were conducted using various tumor cell lines, in particular mammary carcinoma (MAXF), lung adenocarcinoma (LXFA), large-cell lung carcinoma (LXFL), small-cell lung carcinoma (LXFS), colon carcinoma (CXF), melanoma (MEXF), pancreatic carcinoma (PAXF), renal carcinoma (RXF), ovarian carcinoma (OVXF) and bladder carcinoma (BXF).

Series [5] concerns human tumor xenograft LXFL 529. Kind of series: In vivo testing in nude mice bearing subcutaneous tumor xenograft. To be noted: for tumor growth (relative tumor volume) compared to the vehicle control (in words): LXFL 529/17, i.p., nude mice, FIG. 1. How it is done: Compound of Examples 1, 4, 6, 8, 9 and 10 were subjected to in vivo testing in nude mice bearing subcutaneously growing human tumor xenograft LXFL 529. The indigoid bisindole derivatives were applied intraperitoneally to the animals in doses and according to the schedule as described in Table 4.
The experiments were run for 21 or 28 days. Anti-tumor activity was evaluated comparing the median tumor volume relative to control, expressed as %T/C, wherein T is the test group and C the vehicle control group. In Table 4, anti-tumor activity is given according to an activity rate scale.

The subject of a further series is HT29X (colon). Kind of series: Colony-forming assay. The series is classed as cell-based, human. To be noted: colon HT29X.
The subject of the next series is OVXF1352 (ovarian). How it is done: as §1, §2
A further series relates to MEXF514 (melanoma). Kind of series: Colony-forming assay. The series is classed as cell-based, human.
The conditions of series [6]: dosage of 100 mg/kg up to 300 mg/kg, FIG. 2 and FIG. 4.
Source text: A reduction of the body weight of the tested mice of more then 20% by weight in general is interpreted as a toxic dose.
Where [7] appears, read: concentration of incubation 10 μM.
Where [8] appears, read: concentration of incubation 20 μM.
Setting [9] is: read-out: IC50 colony formation.

The term IC50 denotes the point on the concentration scale where inhibition reaches its midpoint.

`O=C1Nc2ccccc2/C1=C1/Nc2ccccc2C1=O` [Example 1, Indirubin]: in series [1], the “solubility in water (in words)” value is “dissolves only poorly in water”. The IC70 colony formation in the series with MCF7X (mammary) was 6.0 µM; in [3], 35.6 µM; with PAXF736 (pancreatic), above 30 µM; in the series with OVXF1353 (ovarian) it was above 30 µM. For the same compound, the IC50 worked out at 2 µM with MCF7X (mammary); 9.9 ± 0.1 µM in series [2]; 25.3 µM in [3] (setting [9]); 5.4 µM in the series on PAXF736 (pancreatic); 4 ± 2 µM in series [4]; 12.3 µM in the series on OVXF1353 (ovarian) (setting [9]). For the same compound, the “uptake by the tumor cells (in words)” value in the series with LXFL 529L cells (LXFL 529L cells) is “taken up by the tumor cells”. The distribution cellular organelles with LXFL 529L cells (setting [7]) was 93 ± 5.7%; in the series on LXFL 529L cells (setting [8]), 94 ± 1.4%. Also, the distribution cytosol in the series on LXFL 529L cells (setting [7]) is 7 ± 5.7%; with LXFL 529L cells (setting [8]), 6 ± 1.4%. The activity rating entry in [5] (100 mg/kg/day i.p., days 1-5, 8-9) is “+ (tumor inhibition T/C > 25-50%)”; in series [5] (200 mg/kg/day i.p., days 1-5, 8-9), “++ (tumor stasis T/C ≦ 25%)”. Moreover, the “tumor growth (relative tumor volume) compared to the vehicle control (in words)” value in series [5] is listed as “significantly inhibited the tumor growth”.

Turning to `Cc1ccc2c(c1)/C(=C1/Nc3ccccc3C1=O)C(=O)N2` [Example 6, 5-Methylindirubin], the IC70 colony formation in the series with HT29X (colon) is 14.4 µM; with MCF7X (mammary), 1.2 µM; in the series on OVXF1352 (ovarian) it was above 30 µM; in the series on PAXF736 (pancreatic) it was 27.5 µM; in the series with MEXF514 (melanoma), 27.8 µM. The IC50 in the series on HT29X (colon) (setting [9]) is below 1 µM; in the series on MCF7X (mammary), below 1 µM; in series [2] it was 7.5 ± 0.5 µM; in the series on OVXF1352 (ovarian) (setting [9]) it was 1 µM; in the series with PAXF736 (pancreatic), 15.4 µM; in [4] it was 4.8 ± 0.5 µM. Moreover, the IC50 with MEXF514 (melanoma) (setting [9]) came out at 19.2 µM. Also, the “ability to penetrate the cellular membrane / uptake compared to indirubin (Example 1) (in words)” value in the series on LXFL 529L cells (LXFL 529L cells) is “substantially improved”. Also, the “uptake by the tumor cells (in words)” value in the series on LXFL 529L cells (LXFL 529L cells) is “taken up by the tumor cells”. The entries for the “amount of substance within the cells” value in the series with LXFL 529L cells (setting [7]) and in the series with LXFL 529L cells (setting [8]) were 0.52 ± 0.1 and 0.86 ± 0.22, respectively. In addition, the distribution cellular organelles in the series on LXFL 529L cells (setting [7]) was 87 ± 0.7%; in the series with LXFL 529L cells (setting [8]), 94 ± 2.8%. The distribution cytosol in the series with LXFL 529L cells (setting [7]) is recorded as 13 ± 0.7%; in the series on LXFL 529L cells (setting [8]) it was 6 ± 2.8%. The “reduction of body weight (in words)” value in [6] is recorded as “without any significant reduction of body weight”. The activity rating result in series [5] (100 mg/kg/day i.p., days 1-5, 8-12, 15, 17, 19, 22) is reported as “++ (tumor stasis T/C ≦ 25%)”; in series [5] (300 mg/kg/day i.p., days 1, 4, 8, 11, 15, 18, 22), “++ (tumor stasis T/C ≦ 25%)”. Moreover, the “tumor growth (relative tumor volume) compared to the vehicle control (in words)” value in series [5] was “significantly inhibited the tumor growth”. The “anti-tumor activity (in words)” value in series [5] (dosage of 100 mg/kg up to 300 mg/kg, FIG. 1 and FIG. 3) is reported as “very high anti-tumor activity”.

The values above are taken from US6664285B1, “Use of cell membrane penetrating indigoid bisindole derivatives” (priority 1999, dated 2003).
